Reference: US10556879B2, “Retinoid compound, preparation method therefor, intermediates thereof and application thereof” (SHANGHAI INSTITUTE OF ORGANIC CHEMISTRY, CHINESE ACADEMY OF …, priority 2016, dated 2020)
Read-outs that look alike come from different tables or passages of the source.

Tests used:
[1] = test system: subcutaneous implantation tumor of B16-F1 melanoma; experiment: Subcutaneous implantation model of B16-F1 melanoma in immunocompetent mice; assay type: in vivo, mice (C57BL/6)
Description: A subcutaneous implantation model of B16-F1 melanoma in immunocompetent mice (C57BL/6, female, 6-8 weeks) was established to study the inhibitory activity of compound WYC-103 on the tumor in situ. Firstly, B16-F1 cells were incubated within 3D fibrin gel (90-Pa in gel stiffness) that was immersed in culture medium for 5 days, and the desired tumor-repopulating cells were screened. Subsequently, the culture medium was respectively treated with collagenase and neutral protease II, and the tumor-repopulating cells of B16-F1 melanoma were released, then the obtained repopulating cells were transferred to a freshly prepared medium to be re-suspended and maintained at single-cell state.
Six immunocompetent mice were randomly divided into two groups which were respectively the treatment group and the DMSO negative control group. Mice were subcutaneously injected with 30,000 tumor-repopulating cells of melanoma to establish a subcutaneous implantation model of melanoma. Subsequently, Mice were administered via tail vein injection based on the body weight and the blood volume of the mice. From day 0, mice in the treatment group were administrated with WYC-103 once every 2 days at a blood concentration of 10 μM and fed normally, observing the survival of the mice. […] According to the statistical analysis, the tumor volume in the treatment group was only 50% of the control group (FIG. 12).
This experiment was repeated in order to further confirm the inhibitory activity of WYC-103 on subcutaneous implantation tumor of B16-F1 melanoma. In the present experiment, 18 immunocompetent mice (C57BL/6, female, 6-8 weeks) were randomly divided into three groups which were respectively the treatment group, the positive control group (BMS-453 was used as the positive drug) and the DMSO negative control group. Subsequently, Mice were administered via tail vein injection based on the body weight and the blood volume of the mice. From day 0, mice in the treatment group were administrated with WYC-103 once every 2 days at a blood concentration of 10 μM; mice in the positive control group were administered with BMS-453 (WYC-114) as the positive drug in the same route of administration; mice in the negative control group was administered with 0.1% DMSO in a same route of administration.

[2] = test system: tumor-repopulating cells of B16-F1 melanoma; experiment: Inhibitory activity on proliferation of tumor-repopulating cells (TRCs) of B16-F1 melanoma in 3D fibrin gel; assay type: cell-based; details: Mus musculus; for IC50: B16-F1, dose-response curve, colony tumor volume, read-out: IC50 of inhibition on TRCs of B16-F1 melanoma/μM
Description: B16-F1 Melanoma cells were incubated with 3D fibrin gel medium (90-Pa) for 5 days, and the desired tumor-repopulating cells of melanoma were screened (Nat. Mater. 2012, 11, 734). Subsequently, the culture medium was respectively treated with collagenase and neutral protease II, and the tumor-repopulating cells of B16-F1 melanoma were released, then the obtained repopulating cells were transferred to a freshly prepared medium to be resuspended and maintained at single-cell state. The tumor-repopulating cells of B16-F1 melanoma were inoculated in 3D fibrin gel medium (90-Pa) for 5 days, with 0.1% DMSO as the negative control group, Tazarotene and Bexarotene as the positive control drugs respectively, […] for 5 days. The colony tumor size was measured and calculated, and the inhibition rate of each drug on the tumor-repopulating cells of B16-F1 melanoma was calculated. The results of inhibitory activity of the compound of the present invention on the proliferation of tumor-repopulating cells of B16-F1 melanoma were shown in Table 2 below.

[3] = B16-F1, 120 h, 10 μM, incubated 5 days, colony tumor size, read-out: Inhibition rate on TRCs of B16-F1 melanoma at a concentration of 10 μM (%)
[4] = B16-F1, 10 μM (Table 3), read-out: Inhibition rate on TRCs of B16-F1 melanoma at a concentration of 10 μM/%

Row | Structure (SMILES) | inhibition at 10 µM [2, 3] | further results
1 | CC1(C)CC=C(c2ccccc2)c2cc(/C=C/c3ccc(C(=O)O)cc3)ccc21 [BMS-453, reference compound] |  | body weight of the mice ([1]; mouse, in vivo): significantly reduced; dissection of peritoneal/abdominal cavity ([1]; mouse, in vivo): a large number of abnormal foamy structure appeared in the peritoneal cavity; toxic side effects ([1]; mouse, in vivo): a greater toxic side effect; mice died ([1]; repeated experiment, on the 20th day): all the mice in the positive control group died
2 | CCOC(=O)c1ccc(C#Cc2ccc3c(c2)C(C)(C)CC[S+]3[O-])c(F)c1F (centres unmarked) [WYC-315, ethyl 2,3-difluoro-4-((4,4-dimethyl-1-oxothiochroman-6-yl)ethynyl)benzoate] | 70.1% | 
3 | COC(=O)c1ccc(C#Cc2ccc3c(c2)C(C)(C)CCS3)c(NC(C)=O)c1 [WYC-316, methyl 3-acetamido-4-((4,4-dimethylthiochroman-6-yl)ethynyl)benzoate] | 76.2% | 
4 | CCOC(=O)c1ccc(C#Cc2ccc3c(c2)C(C)(C)CCS3)c(NC(C)=O)c1 [WYC-317, ethyl 3-acetamido-4-((4,4-dimethylthiochroman-6-yl)ethynyl)benzoate] | 86.4% | 
5 | CCOC(=O)c1ccc(C#Cc2ccc3c(c2)C(C)(C)CC[S+]3[O-])c(NC(C)=O)c1 (centres unmarked) [WYC-318, ethyl 3-acetamido-4-((4,4-dimethyl-1-oxothiochroman-6-yl)ethynyl)benzoate] | 60% | 
6 | CC(=O)Nc1cc(C(=O)O)ccc1C#Cc1ccc2c(c1)C(C)(C)CCS2 [WYC-319, 3-acetamido-4-((4,4-dimethylthiochroman-6-yl)ethynyl)benzoic Acid] | 65.8% | 
7 | CCOC(=O)c1cnc(C#Cc2ccc3c(c2)C(C)(C)CCS3(=O)=O)nc1 [WYC-320, ethyl 2-((4,4-dimethyl-1,1-dioxothiochroman-6-yl)ethynyl)pyrimidin-5-carboxylate] | 92.6% | IC50 [2]: 1.65 µM; inhibition at 10 µM [2, 4]: 92.6%
8 | COC(=O)c1ccc(C#Cc2ccc3c(c2)C(C)(C)CC[S+]3[O-])c(NC(C)=O)c1 (centres unmarked) [WYC-321, methyl 3-acetamido-4-((4,4-dimethyl-1-oxothiochroman-6-yl)ethynyl)benzoate] | 78.2% | 
9 | CCOC(=O)c1cnc(C#Cc2ccc3c(c2)C(C)(C)CCS3)cn1 [WYC-322, ethyl 5-((4,4-dimethylthiochroman-6-yl)ethynyl)pyrazin-2-carboxylate] | 78.8% | 
10 | CC1(C)CCSc2ccc(C#Cc3cnc(C(=O)O)cn3)cc21 [WYC-323, 5-((4,4-dimethylthiochroman-6-yl)ethynyl)pyrazin-2-carboxylic Acid] | 76% | 
11 | CCOC(=O)c1cnc(C#Cc2ccc3c(c2)C(C)(C)CC[S+]3[O-])cn1 (centres unmarked) [WYC-324, ethyl 5-((4,4-dimethyl-1-oxothiochroman-6-yl)ethynyl)pyrazin-2-carboxylate] | 85.1% | 
12 | CCOC(=O)c1ccc(C#Cc2ccc3c(c2)C(C)(C)CCS3)cc1Cl [WYC-325, ethyl 2-chloro-4-((4,4-dimethylthiochroman-6-yl)ethynyl)benzoate] | 74.2% | 
13 | CCOC(=O)c1ccc(C#Cc2ccc3c(c2)C(C)(C)CC[S+]3[O-])cc1Cl (centres unmarked) [WYC-326, ethyl 2-chloro-4-((4,4-dimethyl-1-oxothiochroman-6-yl)ethynyl)benzoate] | 73.4% | 
14 | CC1(C)CCSc2ccc(C#Cc3ccc(C(=O)O)c(Cl)c3)cc21 [WYC-327, 2-chloro-4-((4,4-dimethylthiochroman-6-yl)ethynyl)benzoic Acid] | 75.7% | 
15 | CC1(C)CCC(C)(C)c2cc(C#Cc3cnc(C#N)nc3)ccc21 [WYC-329, 2-cyano-5-((5,5,8,8-tetramethyl-5,6,7,8-tetrahydronaphth-2-yl)ethynyl)pyrimidine] | 94.5% | IC50 [2]: 0.5 µM; inhibition at 10 µM [2, 4]: 94.5%
16 | CC1(C)CCC(C)(C)c2cc(C#Cc3ccc(C(=O)O)c(N)c3)ccc21 [WYC-330, 2-amino-4-((5,5,8,8-tetramethyl-5,6,7,8-tetrahydronaphth-2-yl)ethynyl)benzoic Acid] | 79% | 
17 | COC(=O)c1ccc(C#Cc2ccc3c(c2)C(C)(C)CCC3(C)C)c(O)c1 [WYC-332, methyl 3-hydroxy-4-((5,5,8,8-tetramethyl-5,6,7,8-tetrahydronaphth-2-yl)ethynyl)benzoate] | 55.9% | 
18 | CC1(C)CCC(C)(C)c2cc(C#Cc3ccc(C#N)cn3)ccc21 [WYC-333, 2-((5,5,8,8-tetramethyl-5,6,7,8-tetrahydronaphth-2-yl)ethynyl)-5-cyanopyridine] | 69.1% | 
19 | CCOC(=O)c1ncc(C#Cc2ccc3c(c2)C(C)(C)CCC3(C)C)cn1 [WYC-334, ethyl 5-((5,5,8,8-tetramethyl-5,6,7,8-tetrahydronaphth-2-yl)ethynyl)pyrimidin-2-carboxylate] | 80.6% | 
20 | CC1(C)CCC(C)(C)c2cc(C#Cc3ccc(C(=O)O)c(O)c3)ccc21 [WYC-335, 2-hydroxy-4-((5,5,8,8-tetramethyl-5,6,7,8-tetrahydronaphth-2-yl)ethynyl)benzoic Acid] | 86.9% | 
21 | CC(=O)Nc1cc(C#Cc2ccc3c(c2)C(C)(C)CCC3(C)C)ccc1C(=O)O [WYC-336, 2-acetyl amino-4-((5,5,8,8-tetramethyl-5,6,7,8-tetrahydronaphth-2-yl)ethynyl)benzoic Acid] | 86.7% | 
22 | CC1(C)CCC(C)(C)c2cc(C#Cc3ccc(C(=O)O)nc3)ccc21 [WYC-337, 5-((5,5,8,8-tetramethyl-5,6,7,8-tetrahydronaphth-2-yl)ethynyl)pyridin-2-carboxylic Acid] | 87.5% | 
23 | COC(=O)c1ncc(C#Cc2ccc3c(c2)C(C)(C)CCC3(C)C)cn1 [WYC-338, methyl 5-((5,5,8,8-tetramethyl-5,6,7,8-tetrahydronaphth-2-yl)ethynyl)pyrimidin-2-carboxylate] | 69% | 
24 | CCOC(=O)c1ccc(C#Cc2ccc3c(c2)C(C)(C)CCC3(C)C)cn1 [WYC-341, ethyl 5-((5,5,8,8-tetramethyl-5,6,7,8-tetrahydronaphth-2-yl)ethynyl)pyridin-2-carboxylate] | 87% | 
25 | CCOC(=O)c1cnc(C#Cc2ccc3c(c2)C(C)(C)CCC3(C)C)cn1 [WYC-342, ethyl 5-((5,5,8,8-tetramethyl-5,6,7,8-tetrahydronaphth-2-yl)ethynyl)pyrazin-2-carboxylate] | 77.6% | 
